Data as given in patent US20050159333A1, “Methods of modulating smooth muscle contractility” (priority 2002, published 2005).
Where “and” joins values, the source holds several entries; their conditions need not be identical. Equal values may be shown once. Where a name gives a salt, the structure may show the parent alone. Read-outs that look alike come from different tables or passages of the source.

What was measured:
[1] = system: isolated rabbit pulmonary artery; conditions: Fu et al. 1998; cited from earlier work
[2] = system: other serine/threonine protein kinases; conditions: Davies et al. 2000; cited from earlier work
ROCK II = conditions: Ishizaki et al. 2000; cited from earlier work
[3] = system: isolated rabbit urinary bladder smooth muscle; conditions: Jezior et al. 2001, cited from earlier work
[4] = target: protein kinase C-related protein kinase 2 (PRK2) (Homo sapiens, UniProt Q16513); conditions: Davies et al. 2000; cited from earlier work
[5] = system: isolated male rat urinary bladder; assay: carbachol-evoked contractions of isolated male rat urinary bladder strips (organ bath); type: cell-based
PRK1 (protein kinase N) = PRK1 (protein kinase N) (Homo sapiens, UniProt Q16512); conditions: cited from earlier work
[6] = system: isolated male rat urinary bladder; assay: electrically-evoked contractions of isolated male rat urinary bladder strips (organ bath); type: cell-based
[7] = system: isolated male rat urinary bladder; assay: KCl-evoked contractions of isolated male rat urinary bladder strips (organ bath); type: cell-based
[8] = system: isolated male rat urinary bladder; assay: contractile responses of isolated male rat urinary bladder to the PKC activator phorbol ester; type: cell-based
[9] = system: isolated male rat urinary bladder; assay: NKA-evoked contractions of isolated male rat urinary bladder strips (organ bath); type: cell-based
[10] = system: isolated male rat urinary bladder; assay: baseline bladder tension of isolated male rat urinary bladder strips; type: cell-based; conditions: for decrease in baseline bladder tension from baseline / relaxation (decrease in baseline bladder tension): 10 μM, 45 min incubation; for effect on baseline bladder tension / bladder tone: absence of agonist-evoked contractile responses
[11] = system: isolated male rat urinary bladder; assay: α,β-methylene ATP-evoked contractions of isolated male rat urinary bladder strips (organ bath); type: cell-based; conditions: for attenuation of α,β-methylene ATP-evoked bladder contractions: 10 μM inhibitor, 45 min, 10 μM α,β-methylene ATP
PKC from rat brain = conditions: cited from earlier work
isolated rabbit aorta = conditions: Seto et al. 1991; cited from earlier work
PKC, human form = PKC, human form (Homo sapiens, UniProt P17252); conditions: 20 μM HA-1077; Davies et al. 2000; cited from earlier work
[12] = Rattus norvegicus, read-out: antagonist affinity (pKb) (converted)
[13] = all frequencies (2, 4, 8, 16 Hz), Y-27632 10 μM, atropine 1 μM, α,β-methylene ATP 10 μM
[14] = Y-27632 10 μM, unpublished observations
[15] = vehicle experiments, at 3×10^−7 M NKA

protein kinase C-related protein kinase 2 (PRK2), sequence (Q16513 whole entry, species assumed): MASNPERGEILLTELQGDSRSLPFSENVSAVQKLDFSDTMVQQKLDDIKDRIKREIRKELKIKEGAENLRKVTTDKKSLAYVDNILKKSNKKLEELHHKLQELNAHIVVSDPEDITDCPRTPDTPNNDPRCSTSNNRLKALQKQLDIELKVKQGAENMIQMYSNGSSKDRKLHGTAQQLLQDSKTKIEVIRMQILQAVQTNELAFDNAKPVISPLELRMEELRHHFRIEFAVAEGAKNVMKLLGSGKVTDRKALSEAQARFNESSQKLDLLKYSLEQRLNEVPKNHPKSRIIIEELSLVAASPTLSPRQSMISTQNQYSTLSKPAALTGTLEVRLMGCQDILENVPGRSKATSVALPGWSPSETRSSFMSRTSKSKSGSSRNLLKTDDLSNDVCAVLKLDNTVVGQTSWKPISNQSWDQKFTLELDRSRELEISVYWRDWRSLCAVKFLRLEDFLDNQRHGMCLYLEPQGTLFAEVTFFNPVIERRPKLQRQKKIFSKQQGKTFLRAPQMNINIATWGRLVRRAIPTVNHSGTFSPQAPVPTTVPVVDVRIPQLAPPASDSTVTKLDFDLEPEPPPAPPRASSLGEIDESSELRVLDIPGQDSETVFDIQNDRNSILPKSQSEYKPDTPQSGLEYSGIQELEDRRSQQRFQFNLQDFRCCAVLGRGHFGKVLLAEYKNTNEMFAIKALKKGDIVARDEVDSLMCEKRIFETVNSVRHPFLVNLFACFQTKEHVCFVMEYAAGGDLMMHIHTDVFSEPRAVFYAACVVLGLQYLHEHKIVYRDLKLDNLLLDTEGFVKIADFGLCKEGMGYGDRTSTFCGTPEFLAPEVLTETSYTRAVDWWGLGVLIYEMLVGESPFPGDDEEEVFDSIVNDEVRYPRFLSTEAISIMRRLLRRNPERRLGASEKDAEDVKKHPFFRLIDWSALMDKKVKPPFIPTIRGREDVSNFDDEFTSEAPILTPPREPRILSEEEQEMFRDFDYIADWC
PRK1 (protein kinase N), sequence (Q16512 whole entry, species assumed): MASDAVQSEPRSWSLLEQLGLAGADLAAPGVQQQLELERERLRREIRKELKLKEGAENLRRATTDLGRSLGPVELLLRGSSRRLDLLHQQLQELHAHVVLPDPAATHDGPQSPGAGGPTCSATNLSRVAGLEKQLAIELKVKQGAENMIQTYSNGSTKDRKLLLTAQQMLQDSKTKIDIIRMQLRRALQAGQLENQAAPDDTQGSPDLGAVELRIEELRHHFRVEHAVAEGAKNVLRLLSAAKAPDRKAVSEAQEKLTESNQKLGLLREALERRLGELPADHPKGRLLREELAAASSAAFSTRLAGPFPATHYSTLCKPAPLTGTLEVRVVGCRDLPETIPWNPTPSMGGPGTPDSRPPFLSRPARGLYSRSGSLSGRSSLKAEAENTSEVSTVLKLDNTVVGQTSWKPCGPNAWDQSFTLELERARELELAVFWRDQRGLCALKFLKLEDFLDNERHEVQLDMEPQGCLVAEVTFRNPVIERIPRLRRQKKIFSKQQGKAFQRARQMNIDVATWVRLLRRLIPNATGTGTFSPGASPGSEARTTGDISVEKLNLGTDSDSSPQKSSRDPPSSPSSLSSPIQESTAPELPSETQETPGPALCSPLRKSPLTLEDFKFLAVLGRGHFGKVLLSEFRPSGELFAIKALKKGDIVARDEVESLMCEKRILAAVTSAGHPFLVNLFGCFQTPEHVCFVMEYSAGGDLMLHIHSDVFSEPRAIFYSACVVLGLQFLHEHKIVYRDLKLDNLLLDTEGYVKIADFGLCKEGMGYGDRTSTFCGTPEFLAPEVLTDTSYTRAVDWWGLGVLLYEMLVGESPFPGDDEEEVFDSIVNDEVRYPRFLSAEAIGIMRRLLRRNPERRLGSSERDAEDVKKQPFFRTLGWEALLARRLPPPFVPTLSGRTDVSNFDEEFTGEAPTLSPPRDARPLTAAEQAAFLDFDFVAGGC

SMILES: C[C@@H](N)[C@H]1CC[C@H](C(=O)Nc2ccncc2)CC1 [Y-27632, (+)-(R)-trans-4-(1-amino-ethyl)-N-(4-pyridyl) cyclohexanecarboxamide dihydrochloride monohydrate]
- effect on AA-evoked contractile responses [1]: attenuated
- effect on a large number of other serine/threonine protein kinases [2]: minimal effect
- Ki (ROCK II): 0.3 µM
- effect on bethanechol-evoked contractions ([3]; dihydrochloride monohydrate): attenuates
- effect on PRK2 [4]: inhibited
- inhibition of carbachol-evoked contractions ([5]; 10 μM Y-27632, 45 min pretreatment, at 3×10^−6 M carbachol, dihydrochloride monohydrate): 58±11%
- effect on carbachol-evoked contractions ([5]; 10 μM Y-27632, 10^−5-10^−4 carbachol): this inhibition was not significant
- effect on carbachol-evoked contractions ([5]; 10 μM Y-27632, 10^−9-3×10^−6 M carbachol): significantly attenuated
- inhibition at 10 µM ([5]; Rattus norvegicus, 10 μM Y-27632, 45 min pretreatment, at 3×10^−6 M carbachol): 58.1 ± 10.5%
- Kb [5, 12]: 2.14 µM
- degree of attenuation of G protein-coupled receptor contractile responses (carbachol and NKA) ([5]; Y-27632 10 μM, carbachol and NKA responses together): approximately 50%
- effect on carbachol-evoked contractions ([5]; pretreatment with 1 and 3 μM Y-27632): no effect
- Ki (PRK1 (protein kinase N)): 3.1 µM
- effect on AUC of electrically-evoked bladder contractions [6, 13]: significantly attenuated
- effect on amplitude of electrically-evoked bladder contractions [6, 13]: significantly attenuated
- effect on contractile response to KCl ([7]; 10 μM Y-27632, KCl 10-100 mM, dihydrochloride monohydrate): no measureable effect
- effect on contractile responses to the PKC activator phorbol ester [8, 14]: no effect
- effect on NKA-induced contractions ([9]; 10 μM Y-27632, all concentrations of agonist): significantly attenuated
- attenuation of NKA-evoked bladder contractions ([9]; 10 μM Y-27632, at 10^−6 M): 69±13%
- Kb [9, 12]: 2.51 µM
- inhibition at 10 µM ([9]; Rattus norvegicus, read-out: inhibition of NKA-induced contractions): 68.6 ± 12.7%
- decrease in baseline bladder tension from baseline [10]: 47.0±2.5%
- relaxation (decrease in baseline bladder tension) [10]: 0.40 ± 0.05 g
- effect on baseline bladder tension / bladder tone [10]: decreased bladder tone
- attenuation of α,β-methylene ATP-evoked bladder contractions ([11]; dihydrochloride monohydrate): 30.0±7.2% and 30±7% and ~30%

SMILES: CSCC[C@H](NC(=O)[C@H](CC(C)C)NC(=O)CNC(=O)[C@@H](NC(=O)[C@H](Cc1ccccc1)NC(=O)[C@H](CO)NC(=O)[C@H](CC(=O)O)NC(=O)[C@@H](NC(=O)[C@H](CCCCN)NC(=O)[C@@H](N)Cc1c[nH]cn1)[C@@H](C)O)C(C)C)C(N)=O [NKA, Neurokinin A]
- EC50 ([9]; read-out: NKA EC50 in the presence of Y-27632, 10 μM Y-27632): 0.0324 µM
- maximal response to NKA [9, 15]: 4.2 ± 0.4 g
- maximal response to NKA as % of the response to 100 mM KCl [9, 15]: 136.2±24.8%

SMILES: Nc1ncnc2c1ncn2[C@@H]1O[C@H](COP(=O)(O)CP(=O)(O)OP(=O)(O)O)[C@@H](O)[C@H]1O [α,β-methylene ATP]
- mean amplitude of contractile responses evoked by α,β-methylene ATP [11]: 3.9 ± 0.5 g

SMILES: [Cl-].[K+] [KCl, potassium chloride]
- maximal response to KCl [7]: 8.7 ± 0.5 g
- EC50 ([7]; read-out: KCl EC50 in the absence of antagonist): 31000 ± 4300 µM

SMILES: C[N+](C)(C)CCOC(N)=O.[Cl-] [carbachol, carbamylcholine chloride]
- EC50 ([5]; Rattus norvegicus, read-out: carbachol EC50 in the presence of Y-27632): 1.03 ± 0.336 µM
- Emax at 10 µM ([5]; Rattus norvegicus, vehicle experiments, at 10^−5 M carbachol, read-out: maximal response to carbachol as % of the response to 100 mM KCl): 105 ± 28.2%
- EC50 ([5]; Rattus norvegicus, vehicle experiments, read-out: carbachol EC50 in the absence of antagonist): 0.183 ± 0.0689 µM
- maximal response to carbachol ([5]; vehicle experiments, at 10^−5 M carbachol): 5.3 ± 0.9 g

SMILES: CN(C)CCCn1cc(C2=C(c3c[nH]c4ccccc34)C(=O)NC2=O)c2ccccc21 [GF109203X]
- effect on contractile responses to the PKC activator phorbol ester [8]: inhibited

SMILES: O=S(=O)(c1cccc2cnccc12)N1CCCNCC1 [HA-1077, fasudil]
- Ki (PKC from rat brain): 9.3 µM
- effect on bethanechol-evoked contractions [3]: attenuate
- effect on PRK2 [4]: inhibited
- effect on PG-evoked contractions (isolated rabbit aorta): inhibits
- inhibitory effect on the human form of PKC (PKC, human form): no significant inhibitory effects
- effect on contractile responses to the PKC activator phorbol ester [8, 14]: no inhibitory effects
- decrease in baseline bladder tension from baseline [10]: 36.1±1.6%
- relaxation (decrease in baseline bladder tension) [10]: 0.30 ± 0.01 g
- effect on baseline bladder tension / bladder tone [10]: decreased bladder tone
- attenuation of α,β-methylene ATP-evoked bladder contractions [11]: 22.1±5.7% and 22±6%

SMILES: NC1=N[C@H](O)[C@H]2[C@H]3O[C@]4(O)O[C@@H]([C@@H](O)[C@@]2(N1)[C@@H]4O)[C@]3(O)CO [TTX, tetrodotoxin]
- effect on frequency-response curves to electrical stimulation [6]: abolished
